Laboratory results from ChEMBL document CHEMBL1201862, “PubChem BioAssay data set” (2004).
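Five compound concentrations were applied to cells in 96-well plates for 48 hours; endpoints were derived by simple linear interpolation of the resulting dose-response curve. GI50 is the concentration that inhibits growth by half.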 Calls of active or inactive are those of the source. Rule as the data show it: active = GI50 up to about 1.1 µM and inactive = higher.

What was measured:
Assay in all cases: growth of human tumour cells (NCI), 48 h
A549 = test system: A549
CAKI-1 = test system: CAKI-1
CCRF-CEM = test system: CCRF-CEM
HT-29 = test system: HT-29
IGROV-1 = test system: IGROV-1
K562 = test system: K562
LOX IMVI = test system: LOX IMVI
MDA-N = test system: MDA-N
OVCAR-4 = test system: OVCAR-4
OVCAR-5 = test system: OVCAR-5
OVCAR-8 = test system: OVCAR-8
RPMI-8226 = test system: RPMI-8226
SF-539 = test system: SF-539
SK-MEL-28 = test system: SK-MEL-28
SK-OV-3 = test system: SK-OV-3
SNB-19 = test system: SNB-19
SR = test system: SR
UACC-257 = test system: UACC-257
RXF 393 = test system: RXF 393

Row | SMILES | GI50 (A549) | GI50 (CAKI-1) | GI50 (CCRF-CEM) | GI50 (HT-29) | GI50 (IGROV-1) | GI50 (K562) | GI50 (LOX IMVI) | GI50 (MDA-N) | GI50 (OVCAR-4) | GI50 (OVCAR-5) | GI50 (OVCAR-8) | GI50 (RPMI-8226) | GI50 (SF-539) | GI50 (SK-MEL-28) | GI50 (SK-OV-3) | GI50 (SNB-19) | GI50 (SR) | GI50 (UACC-257) | GI50 (RXF 393)
1 | CC(=O)Nc1ccc(NCC(=O)Nn2cnc3ccc(S(=O)(=O)Nc4ccc(NC(C)=O)cc4)cc3c2=O)cc1 | > 100 µM (inactive) | > 100 µM (inactive) | > 100 µM (inactive) | > 100 µM (inactive) | > 100 µM (inactive) | > 100 µM (inactive) | > 100 µM (inactive) | > 100 µM (inactive) | > 100 µM (inactive) | > 100 µM (inactive) | > 100 µM (inactive) | > 100 µM (inactive) | > 100 µM (inactive) | > 100 µM (inactive) | > 100 µM (inactive) | > 100 µM (inactive) | > 100 µM (inactive) | > 100 µM (inactive) | –
2 | COc1cc(/C=C2\[C@H]3c4c(c(OC)c(C)c(OC)c4OC)C[C@@H](C(=O)N2Cc2ccccc2)N3C(=O)OCC(C)C)c(OC)c(C)c1OC | > 71.1 µM (inactive) | 23.6 µM (inactive) | 33.6 µM (inactive) | > 84.5 µM (inactive) | > 77.8 µM (inactive) | 42.2 µM (inactive) | > 100 µM (inactive) | – | > 100 µM (inactive) | > 27.5 µM (inactive) | > 100 µM (inactive) | 13.6 µM (inactive) | > 100 µM (inactive) | > 100 µM (inactive) | > 100 µM (inactive) | > 100 µM (inactive) | 13.3 µM (inactive) | 16.6 µM (inactive) | > 100 µM (inactive)
3 | COc1ccc(C2N(c3ccc(C)c(N=C=O)c3)C(=O)N3C(c4ccc(OC)cc4)N(c4ccc(C)c(N=C=O)c4)C(=O)N23)cc1 (configuration not stated) | > 100 µM (inactive) | > 100 µM (inactive) | > 100 µM (inactive) | > 100 µM (inactive) | 38.9 µM (inactive) | > 100 µM (inactive) | > 100 µM (inactive) | > 100 µM (inactive) | > 100 µM (inactive) | > 100 µM (inactive) | > 100 µM (inactive) | > 100 µM (inactive) | > 100 µM (inactive) | > 100 µM (inactive) | – | > 100 µM (inactive) | > 100 µM (inactive) | > 100 µM (inactive) | > 100 µM (inactive)
4 | COC(=O)[C@@H]1O[C@]12C(CO[Si](C)(C)C(C)(C)C)OC(n1ccc(=O)[nH]c1=O)C2O[Si](C)(C)C(C)(C)C (some centres not stated) | 32.7 µM (inactive) | 19.7 µM (inactive) | > 100 µM (inactive) | 7.93 µM (inactive) | 17.7 µM (inactive) | 25.5 µM (inactive) | 14.8 µM (inactive) | 33.1 µM (inactive) | 45.7 µM (inactive) | 25.1 µM (inactive) | 30.9 µM (inactive) | 8.85 µM (inactive) | 19.7 µM (inactive) | 25.5 µM (inactive) | 50.8 µM (inactive) | 22.9 µM (inactive) | > 10 µM (inactive) | 22.1 µM (inactive) | –
5 | CC(=O)Oc1ccc2c(C)cc(=O)oc2c1OC(C)=O | 38.4 µM (inactive) | – | 5.4 µM (inactive) | 29.9 µM (inactive) | 22.3 µM (inactive) | 47.8 µM (inactive) | 22.2 µM (inactive) | > 100 µM (inactive) | 46.8 µM (inactive) | 93.5 µM (inactive) | 27 µM (inactive) | 24.5 µM (inactive) | > 100 µM (inactive) | 33.9 µM (inactive) | > 100 µM (inactive) | 41.3 µM (inactive) | 17.3 µM (inactive) | 17.7 µM (inactive) | –
6 | CC1=Cc2cccc(C)c2C(=O)C1=O [O-HIBISCANONE] | 6.81 µM (inactive) | 16.5 µM (inactive) | 0.379 µM (active) | 2.79 µM (inactive) | 15.6 µM (inactive) | 0.617 µM (active) | 8.77 µM (inactive) | – | 5.31 µM (inactive) | 19 µM (inactive) | 5.85 µM (inactive) | 1.06 µM (active) | 6.56 µM (inactive) | 16 µM (inactive) | 18.5 µM (inactive) | 19.8 µM (inactive) | 0.26 µM (active) | 2.16 µM (inactive) | 4.66 µM (inactive)
